Measured values: patent US11179348B2, “Combination comprising pterostilbene for the treatment of cancer” (FUNDACIÓN UNIVERSIDAD CATÓLICA DE VALENCIA SAN VICENTE …, priority 2015, dated 2021)
Read-outs that look alike come from different tables or passages of the source. Marks after values point to notes of the source that are not given here.

What was measured:
A2058 melanoma cell line = experiment: Effect of anti-melanoma chemotherapy on viability (IC50) of in vitro growing A2058; format: cell-based, human
Description: (§1) Human A2058, MeWo and MelJuso melanoma cells, and mouse AtT-20 pituitary corticotroph tumor cells were from the American Type Culture Collection (ATCC). Human HEMa-LP epidermal melanocytes were from Life Technologies (Grand Island, N.Y.). […] Cells were grown in Dulbecco's modified Eagle's medium (DMEM) (Invitrogen, San Diego, Calif.), pH 7.4, supplemented with 10% heat-inactivated FCS (Biochrom KG, Berlin, Germany), 100 units/ml penicillin and 100 μg/ml streptomycin. Cells were plated, at a density of 20,000 cells/cm2, and cultured at 37° C. in a humidified atmosphere with 5% CO2. […] Cell numbers were determined using a Coulter Counter (Coulter Electronic Inc., Miami, Fla.). Cells were allowed to attach for 12 h before any treatment addition.

MeWo melanoma cell line = experiment: Effect of anti-melanoma chemotherapy on viability (IC50) of in vitro growing MeWo; format: cell-based, human
Description: as §1

[1] = test system: MelJuso melanoma cell line; experiment: Effect of anti-melanoma chemotherapy on viability (IC50) of in vitro growing MelJuso; format: cell-based, human
Description: as §1

[2] = test system: A2058 cells isolated from tumor-bearing mice; experiment: Chemosensitization of cultured A2058 cells isolated from xenografts; format: cell-based, human; conditions: isolated A2058 cells without in vivo Pter treatment
Description: FIG. 5. Chemosensitization effect of GSH depletion (A) or sod1-AS (B) in melanoma cells isolated from Pter-treated mice. Melanoma cells were cultured as in FIG. 1C. PAC.PBP (100 ng/ml) was added to the culture flasks 24 h after seeding. […] Data are mean values±SD for 5-6 different experiments (*p<0.01, comparing all experimental conditions vs controls).
FIGS. 18-25. Effect of piperlongumine and I-BET762, as GSH depleting and chemosensitizing agents, in in vitro growing human melanoma, pancreatic, breast, lung, liver, prostate, ovarian, and colorectal cancer cells. Cancer cells, isolated from Pter-treated tumor-bearing mice, were cultured as indicated under Methods. Chemotherapy (0.25 μM PAC.PBP in A2058 melanoma and MDA-MB-231 breast carcinoma cells; 0.125 μM PAC.PBP and 25 μM GTB in AsPC-1 pancreatic cancer cells; 1 μM VRB and 15 μM cisPt in A459 lung carcinoma cells; 0.15 μM DXR in HepG2 hepatocellular carcinoma cells; 15 nM DCT in PC-3 prostate carcinoma cells; 0.15 μM PAC.PBP and 25 μM CarboPt in SK-OV-3 ovarian carcinoma cells; 3 μM 5-FU, 1 μM FA and 0.6 μM IRI in HT-29 colorectal carcinoma cells) was added to the cultured flasks 24 h after seeding. PL (1 μM in A2058 and AsPC-1 cells; 0.5 μM in A549 and HT-29 cells; 0.2 μM in HepG2, PC-3, and SK-OV-3 cells; 0.1 μM in MDA-MB-231 cells) or I-BET762 (0.5 μM in HT-29 cells; 0.2 μM in A2058, AsPC-1, HepG2, PC-3, and SK-OV-3 cells; 0.1 μM in A549 and MDA-MB-231 cells) were added 6 h later. Data are mean values±SD for 4-5 different experiments per cell line (*p<0.05 and **p<0.01, comparing all experimental conditions versus control. PL, piperlongumine; PAC.PBP, paclitaxel protein-bound particles; GTB, gemcitabine; DXR, doxorubicin; VRB, vinorelbin; CisPt, cisplatin; docetaxel, DCT; CarboPt, carboplatin; 5-FU, 5-fluoracil; FA, folinic acid; IRI, irinotecan; 5-FU+FA+IRI=FOLFIRI).
Human A2058, MeWo and MelJuso melanoma cells, and mouse AtT-20 pituitary corticotroph tumor cells were from the American Type Culture Collection (ATCC). Human HEMa-LP epidermal melanocytes were from Life Technologies (Grand Island, N.Y.). Human MDA-MB-231 (triple negative: ER−, PR−, HER2−) and MCF-7 (ER+, PR+, HER2−) breast adenocarcinoma, A549 lung adenocarcinoma (NSCLC), HepG2 hepatocellular carcinoma, LNCaP (AR+) and PC-3 (AR−) prostate adenocarcinoma, SK-OV-3 epithelial ovarian carcinoma, and HT-29 and Caco-2 colorectal carcinoma cells were from the American Type Culture Collection. Cells were grown in Dulbecco's modified Eagle's medium (DMEM) (Invitrogen, San Diego, Calif.), pH 7.4, supplemented with 10% heat-inactivated FCS (Biochrom KG, Berlin, Germany), 100 units/ml penicillin and 100 μg/ml streptomycin. Cells were plated, at a density of 20,000 cells/cm2, and cultured at 37° C. in a humidified atmosphere with 5% CO2. Cells were harvested by incubation for 5 min with 0.05% (w/v) trypsin (Sigma, St. Louis, Mo.) in PBS (10 mM sodium phosphate, 4 mM KCl, 137 mM NaCl), pH 7.4, containing 0.3 mM EDTA, followed by the addition of 10% FCS to inactivate the trypsin. Cell numbers were determined using a Coulter Counter (Coulter Electronic Inc., Miami, Fla.). Cells were allowed to attach for 12 h before any treatment addition. Cellular viability was assessed as previously reported (Mena, S. et al. Clin Cancer Res 13, 2658-2666 (2007)), by measuring trypan blue exclusion and leakage of lactate dehydrogenase activity.
Isolation of Tumor Cells from Mouse Xenografts Using Enzymatic Digestion and a double Ficoll gradient. […]

A2058 melanoma = experiment: In vivo growth of A2058 melanoma xenografts in nu/nu mice; set-up: species or system human; conditions: A2058-RFP; day 35; EGCG or Curc 50 mg/kg i.v. every 48 h, ± CRC
[3] = test system: glucocorticoid receptors (GR); experiment: GR content of human cancer cells by [3H]-labeled ligand whole-cell binding assay; conditions: A2058-RFP tumors; day 35; EGCG or Curc 50 mg/kg, ± CRC
corticosterone = experiment: Plasma corticosterone levels (ELISA) in tumor-bearing mice; format: in vivo; conditions: A2058-bearing mice; day 35; 12 h circadian time; EGCG or Curc 50 mg/kg, ± CRC
Excerpt: (§2) Measurement of ACTH, Corticosterone, and NORA Levels.
(§3) Plasma levels of ACTH (Calbiotech, Inc., Spring Valley, Calif.), corticosterone (Kamiyama Biomedical Co., Seattle, Wash.), and NORA (IBL, Hamburg, Germany) were quantified by ELISA according to the instructions of the suppliers.

ACTH = experiment: Plasma ACTH levels (ELISA) in tumor-bearing mice; format: in vivo; conditions: A2058-bearing mice; day 35; 6 h circadian time; EGCG or Curc 50 mg/kg, ± CRC
Excerpt: as §2, §3

[4] = for deaths in the treated groups: 50 mg/kg i.v. every 48 h
Description: FIG. 12. Effect of (−)-epigallocatechin-3-gallate (EGCG) or curcumin (Curc) treatment on (A) human melanoma (A2058) and (B) pancreatic cancer (AsPC-1) growth in vivo. EGCG or Curc were administered i.v. every 48 h for a period of 5 weeks, starting 1 week after tumor cell inoculation. For this purpose EGCG was dissolved in physiological saline, whereas Curc was dissolved in DMSO.

[5] = test system: AtT-20 pituitary corticotroph tumor cells; experiment: ACTH production and POMC expression in AtT-20 cells; format: cell-based, mouse; conditions: results not shown
Description: FIG. 3. Pterostilbene bioavailability in brain and the pituitary gland, and its effect on ACTH synthesis and POMC expression in AtT-20 cells. […] (B) Effect of pterostilbene on ACTH production by AtT-20 cells in a 24 h-period (measured between 24-48 h or between 48-72 h). […] After the 30 min period, culture flasks were washed out (three times with PBS) and the medium was renewed (controls received identical treatment).
as §3
RT-PCR and detection of mRNA was performed as described above. For Western blotting (see also above) POMC mouse monoclonal antibody (clone 2B2) from Origen (Rockville, Md.) were used.

Compound | IC50 (A2058 melanoma cell line; Homo sapiens) | IC50 (MeWo melanoma cell line; Homo sapiens) | IC50 ([1]; Homo sapiens, MEL-JUSO) | further results
O=NN(CCCl)C(=O)NCCCl [BCNU, Carmustine] | > 100 µM | > 100 µM | 0.17 ± 0.06 µM | 
Diethylmaleate [DEM] |  |  |  | Cell number ([2]; culture time 24 h): 0.49 ± 0.10 ×10^6; Cell number ([2]; culture time 36 h): 0.51 ± 0.05 ×10^6; Cell number ([2]; culture time 48 h): 0.56 ± 0.08 ×10^6; Cell number ([2]; culture time 72 h): 0.67 ± 0.06* ×10^6
Arsenate |  |  |  | IC50 (A2058 melanoma cell line): > 100 µM; IC50 (MeWo melanoma cell line): 94.4 ± 12.4 µM; IC50 [1]: 65.5 ± 5.19 µM
COc1cc(/C=C/C(=O)CC(=O)/C=C/c2ccc(O)c(OC)c2)ccc1O [Curc, curcumin, reference compound] |  |  |  | Tumor vol. (A2058 melanoma): 606 ± 126* mm^3; GR number [3]: 71 ± 12 10^3 GR/cell; CRC (corticosterone): 161 ± 17 ng/mL plasma; ACTH (ACTH): 113 ± 25 pg/mL plasma; deaths in the treated groups [4]: did not cause deaths
Cn1nnc2c(C(N)=O)ncn2c1=O [Temozolomide] | > 100 µM | > 100 µM | > 100 µM | 
CC[C@]1(O)C[C@H]2CN(CCc3c([nH]c4ccccc34)[C@@](C(=O)OC)(c3cc4c(cc3OC)N(C=O)[C@H]3[C@@](O)(C(=O)OC)[C@H](OC(C)=O)[C@]5(CC)C=CCN6CC[C@]43[C@@H]65)C2)C1 [Vincristine] | 6.19 ± 2.06 µM | 12.5 ± 3.04 µM | 0.15 ± 0.02 µM | 
COc1cc(C=Cc2ccc(OS(=O)(=O)O)cc2)cc(OC)c1 [Pter-S, pterostilbene-4′-sulfate] |  |  |  | decrease of ACTH production in AtT-20 cells by pterostilbene conjugates [5]: None
COc1cc(C=Cc2ccc(OC3OC(C(=O)O)C(O)C(O)C3O)cc2)cc(OC)c1 [Pter-G, Pterostilbene 4′-O-D-glucuronide] |  |  |  | decrease of ACTH production in AtT-20 cells by pterostilbene conjugates [5]: None
COc1cccc2c1C(=O)c1c(O)c3c(c(O)c1C2=O)C[C@@](O)(C(C)=O)C[C@@H]3O[C@H]1C[C@H](N)[C@H](O)[C@H](C)O1 [Daunorubicin] | 2.4 ± 0.73 µM | 2.61 ± 0.51 µM | 1.44 ± 0.35 µM | 
CCCC(CCC)C(=O)O [Valproic acid] | > 100 µM | > 100 µM | 66.2 ± 6.39 µM | 
O=C(O[C@@H]1Cc2c(O)cc(O)cc2O[C@@H]1c1cc(O)c(O)c(O)c1)c1cc(O)c(O)c(O)c1 [EGCG, (−)-epigallocatechin-3-gallate, reference compound] |  |  |  | Tumor vol. (A2058 melanoma): 894 ± 137 mm^3; GR number [3]: 77 ± 7 10^3 GR/cell; CRC (corticosterone): 243 ± 31 ng/mL plasma; ACTH (ACTH): 215 ± 36 pg/mL plasma; deaths in the treated groups [4]: did not cause deaths; deaths in the tumor-bearing groups ([4]; 60 mg/kg i.v. every 48 h): 45%
CN(Cc1cnc2nc(N)nc(N)c2n1)c1ccc(C(=O)N[C@@H](CCC(=O)O)C(=O)O)cc1 [Methotrexate] | > 100 µM | > 100 µM | 1.35 ± 0.34 µM | 
CC[C@]1(O)C[C@@H]2CN(CCc3c([nH]c4ccccc34)[C@@](C(=O)OC)(c3cc4c(cc3OC)N(C)[C@H]3[C@@](O)(C(=O)OC)[C@H](OC(C)=O)[C@]5(CC)C=CCN6CC[C@]43[C@@H]65)C2)C1 [Vinblastine] | 7.65 ± 1.35 µM | 14.5 ± 2.17 µM | 0.19 ± 0.04 µM | 
CN(C)/N=N/c1[nH]cnc1C(N)=O [Dacarbazine] | > 100 µM | > 100 µM | 56.7 ± 7.46 µM | 
N.N.[Cl][Pt][Cl] [Cisplatin] |  |  |  | IC50 (A2058 melanoma cell line): > 100 µM; IC50 (MeWo melanoma cell line): 44.3 ± 5.43 µM; IC50 [1]: 11.2 ± 1.77 µM
CC(=O)O[C@H]1C(=O)[C@@]2(C)[C@H]([C@H](OC(=O)c3ccccc3)[C@]3(O)C[C@H](OC(=O)[C@H](O)[C@@H](NC(=O)c4ccccc4)c4ccccc4)C(C)=C1C3(C)C)[C@]1(OC(C)=O)CO[C@@H]1C[C@@H]2O [Paclitaxel, (2α,4α,5β,7β,10β,13α)-4,10-Bis(acetyloxy)-13-{[(2R,3S)-3-(benzoylamino)-2-hydroxy-3-phenylpropanoyl]oxy}-1,7-dihydroxy-9-oxo-5,20-epoxytax-11-en-2-yl benzoate] | 0.35 ± 0.1 µM | 11.1 ± 2.15 µM | 0.13 ± 0.03 µM | 
